In patent US20140357713A1, “ANTIMICROBIAL COMPOUNDS AND METHODS OF USE” (NexMed Holdings, Inc., priority 2012, published 2014):
Read-outs that look alike come from different tables or passages of the source.

Assays:
[1] = Solubility (Sol., Table 1); assay type: physicochemical
pH (Table 1) = assay type: physicochemical
[2] = tested on: Escherichia coli (ATCC 25922); experiment: Minimum inhibitory concentration (MIC) assay, Example 33; assay type: cell-based; conditions: Escherichia coli
Procedure, shortened: (§1)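 Colonies re-streaked twice on agar (20 to 24 hrs, 35±2° C) supplied inoculum adjusted to 0.5 McFarland, diluted 1:100 into medium, then added 1:2 to CAMHB wells holding 2-fold compound dilutions. After incubation at 35° C, MIC was recorded per CLSI.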

[3] = tested on: Pseudomonas aeruginosa (ATCC 27853); experiment: as above; assay type: cell-based; conditions: Pseudomonas aeruginosa
Procedure, shortened: as §1

[4] = tested on: Staphulococcus aureus (ATCC 29213); experiment: as above; assay type: cell-based, Staphylococcus aureus; conditions: Staphylococcus aureus
Procedure, shortened: as §1

[5] = tested on: Candida albicans (ATCC 90029); experiment: as above; assay type: cell-based; conditions: Candida albicans
Procedure, shortened: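 MIC read per CLSI after incubation at 35° C. Colonies in RPMI 1640 adjusted to OD530 0.08–0.13, diluted 1:50 and 1:20 to twice test density, then added 1:2 to wells holding 2-fold serial drug dilutions in RPMI 1640 (CLSI microdilution).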

[6] = tested on: Aspergillus niger (CMCC 98003); experiment: as above; assay type: cell-based; conditions: Aspergillus niger
Procedure, shortened: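 Conidia gently probed from sporulating colonies into RPMI 1640, set to 0.09-0.13 at 530 nm, then diluted 1:50 and mixed 1:2 with 2-fold serially diluted compounds. Following CLSI guidelines, incubation was at 35 °C before the MIC was recorded.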

[7] = tested on: Escherichia coli (ATCC 25922); experiment: Time kill study, Example 33 (0 to 5 min); assay type: cell-based; conditions: 1×MIC
Procedure, shortened: (§2)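 Read-out: Log10 CFU/mL by colony count on agar after 24 to 48 hrs. Exposure: strain suspension and compound solution at equal volume, CLSI method, samples at 0 min, 30 sec, 1 min and 5 mins diluted in test medium before plating.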

[8] = tested on: Pseudomonas aeruginosa (ATCC 27853); experiment: Time kill study, Example 33 (0 to 5 min); assay type: cell-based; conditions: 1×MIC
Procedure, shortened: as §2

[9] = tested on: Staphylococcus aureus (ATCC 29213); experiment: Time kill study, Example 33 (0 to 5 min); assay type: cell-based; conditions: 1×MIC
Procedure, shortened: as §2

CCCCCCCCCCCC(C)(C)OC(=O)C(C)N(C)C.Cl (stereo not drawn) [Nex-65, 2-Methyltridecan-2-yl 2-(dimethylamino)propanoate hydrochloride]
Sol. [1]: 51% | pH (pH (Table 1)): 1.66 | MIC ([2]; ATCC25922, Table 19 summary of Example 33 and Example 35, read-out: MIC): 3130 µg/mL | MIC ([2]; ATCC25922, n = 1, read-out: MIC E. coli): 3130 µg/mL | MIC ([2]; ATCC25922, n = 2, read-out: MIC E. coli): 3130 µg/mL | MIC ([3]; ATCC27853, Table 19 summary, read-out: MIC): 6250 µg/mL | MIC ([3]; ATCC27853, n = 1, read-out: MIC P. aeruginosa): 6250 µg/mL | MIC ([3]; ATCC27853, n = 2, read-out: MIC P. aeruginosa): 6250 µg/mL | MIC ([4]; ATCC29213, Table 19 summary, read-out: MIC): 3130 µg/mL | MIC ([4]; ATCC29213, n = 1, read-out: MIC S. aureus): 3130 µg/mL | MIC ([4]; ATCC29213, n = 2, read-out: MIC S. aureus): 3130 µg/mL | MIC ([5]; ATCC90029, Table 19 summary, read-out: MIC): > 12500 µg/mL | MIC ([5]; ATCC90029, n = 1, read-out: MIC Candida albicans): > 12500 µg/mL | MIC ([5]; ATCC90029, n = 2, read-out: MIC Candida albicans): > 12500 µg/mL | MIC ([6]; CMCC98003, Table 19 summary, read-out: MIC): > 12500 µg/mL | MIC ([6]; CMCC98003, n = 1, read-out: MIC Aspergillus niger): > 12500 µg/mL | MIC ([6]; CMCC98003, n = 2, read-out: MIC Aspergillus niger): > 12500 µg/mL | Viable counts, Escherichia coli time kill study ([7]; 0.5 min): 5.72 Log10 CFU/mL | Viable counts, Escherichia coli time kill study ([7]; 1 min): 5.97 Log10 CFU/mL | Viable counts, Escherichia coli time kill study ([7]; 5 min): 4.22 Log10 CFU/mL | Viable counts, Escherichia coli time kill study ([7]; time 0): 5.68 Log10 CFU/mL | Viable counts, Pseudomonas aeruginosa time kill study ([8]; 0.5 min): 5.36 Log10 CFU/mL | Viable counts, Pseudomonas aeruginosa time kill study ([8]; 1 min): 5.52 Log10 CFU/mL | Viable counts, Pseudomonas aeruginosa time kill study ([8]; 5 min): <3.52 Log10 CFU/mL | Viable counts, Pseudomonas aeruginosa time kill study ([8]; time 0): 5.52 Log10 CFU/mL | Viable counts, Staphylococcus aureus time kill study ([9]; 0.5 min): 6.39 Log10 CFU/mL | Viable counts, Staphylococcus aureus time kill study ([9]; 1 min): 6.35 Log10 CFU/mL | Viable counts, Staphylococcus aureus time kill study ([9]; 5 min): 6.17 Log10 CFU/mL | Viable counts, Staphylococcus aureus time kill study ([9]; time 0): 6.34 Log10 CFU/mL | melting point: 100 to 106 °C
